Assay results as given in ChEMBL document CHEMBL5724914, “Linking interpersonal differences in gut microbiota composition and drug biotransformation activity” (2024).

What was measured:
[1] = (§1) The drug is tested on Z-019 corresponding to rat gut metagenome with ENA study accession number: PRJEB37062 and ENA sample accession number: ERS12561818 for biotransformation under anaerobic condition. The drug concentrations were measured over 9 timepoints collected between 0 and 24 hours of incubation by liquid-chromatography-coupled mass spectrometry (LC–MS); details: 2 µM
[2] = as §1, with “Z-014” for “Z-019”, “ERS12561814” for “ERS12561818”; details: 2 µM
[3] = as §1, with “on Z-009” for “on Z-019”, “to pig” for “to rat”, “number: ERS12561809” for “number: ERS12561818”; details: 2 µM
[4] = as §1, with “on Z-003” for “on Z-019”, “to pig” for “to rat”, “number: ERS12561803” for “number: ERS12561818”; details: 2 µM
[5] = as §1, with “on Z-002” for “on Z-019”, “to rabbit” for “to rat”, “number: ERS12561802” for “number: ERS12561818”; details: 2 µM
[6] = as §1, with “on WLS-098” for “on Z-019”, “to human” for “to rat”, “number: ERS12561754” for “number: ERS12561818”; details: 2 µM
[7] = as §1, with “on WLS-006” for “on Z-019”, “to human” for “to rat”, “number: ERS12561741” for “number: ERS12561818”; details: 2 µM
[8] = human gut metagenome, 24 h, 2 µM
[9] = human gut metagenome, 24 h, 2 µM; remark: listed apart in the source
[10] = human gut metagenome, 24 h, 2 µM; remark: listed apart in the source
[11] = human gut metagenome, 24 h, 2 µM; remark: listed apart in the source
[12] = human gut metagenome, 24 h, 2 µM; remark: listed apart in the source
[13] = human gut metagenome, 24 h, 2 µM; remark: listed apart in the source
[14] = human gut metagenome, 24 h, 2 µM; remark: listed apart in the source
[15] = human gut metagenome, 24 h, 2 µM; remark: listed apart in the source
[16] = human gut metagenome, 24 h, 2 µM; remark: listed apart in the source
[17] = human gut metagenome, 24 h, 2 µM; remark: listed apart in the source
[18] = human gut metagenome, 24 h, 2 µM; remark: listed apart in the source
[19] = human gut metagenome, 24 h, 2 µM; remark: listed apart in the source
[20] = human gut metagenome, 24 h, 2 µM; remark: listed apart in the source
Note: call rule not given here.

Compound | Bacterial Biotransformation [1] | Bacterial Biotransformation [2] | Bacterial Biotransformation [3] | Bacterial Biotransformation [4] | Bacterial Biotransformation [5] | Bacterial Biotransformation [6] | Bacterial Biotransformation [7] | Bacterial Biotransformation [8] | Bacterial Biotransformation [9] | Bacterial Biotransformation [10] | Bacterial Biotransformation [11] | Bacterial Biotransformation [12] | Bacterial Biotransformation [13] | Bacterial Biotransformation [14] | Bacterial Biotransformation [15] | Bacterial Biotransformation [16] | Bacterial Biotransformation [17] | Bacterial Biotransformation [18] | Bacterial Biotransformation [19] | Bacterial Biotransformation [20]
Nc1nc2ccc(OC(F)(F)F)cc2s1 [RILUZOLE] | Compound NOT metabolized | Compound NOT metabolized | Compound metabolized | Compound metabolized | Compound metabolized | Compound metabolized | Compound metabolized | Compound metabolized | Compound NOT metabolized | Compound NOT metabolized | Compound NOT metabolized | Compound NOT metabolized | Compound metabolized | Compound metabolized | Compound metabolized | Compound metabolized | Compound NOT metabolized | Compound metabolized | Compound metabolized | Compound metabolized
CCCc1nc2c(C)cc(-c3nc4ccccc4n3C)cc2n1Cc1ccc(-c2ccccc2C(=O)O)cc1 | Compound NOT metabolized | Compound metabolized | Compound metabolized | Compound metabolized | Compound metabolized | Compound metabolized | Compound metabolized | Compound metabolized | Compound metabolized | Compound metabolized | Compound metabolized | Compound metabolized | Compound metabolized | Compound metabolized | Compound metabolized | Compound metabolized | Compound NOT metabolized | Compound metabolized | Compound metabolized | Compound metabolized
CC(C)NCC(O)c1ccc(NS(C)(=O)=O)cc1 (stereo not given) [SOTALOL] | Compound NOT metabolized | Compound NOT metabolized | Compound NOT metabolized | Compound NOT metabolized | Compound NOT metabolized | Compound NOT metabolized | Compound NOT metabolized | Compound NOT metabolized | Compound NOT metabolized | Compound NOT metabolized | Compound NOT metabolized | Compound NOT metabolized | Compound NOT metabolized | Compound NOT metabolized | Compound NOT metabolized | Compound NOT metabolized | Compound NOT metabolized | Compound NOT metabolized | Compound NOT metabolized | Compound NOT metabolized
Cc1ccccc1N1C(=O)c2cc(S(N)(=O)=O)c(Cl)cc2NC1C (stereo not given) [METOLAZONE] | Compound NOT metabolized | Compound NOT metabolized | Compound NOT metabolized | Compound NOT metabolized | Compound NOT metabolized | Compound metabolized | Compound NOT metabolized | Compound NOT metabolized | Compound NOT metabolized | Compound NOT metabolized | Compound NOT metabolized | Compound metabolized | Compound NOT metabolized | Compound NOT metabolized | Compound metabolized | Compound NOT metabolized | Compound NOT metabolized | Compound NOT metabolized | Compound metabolized | Compound metabolized
COc1c(C)c2c(c(O)c1C/C=C(\C)CCC(=O)OCCN1CCOCC1)C(=O)OC2 [MYCOPHENOLATE MOFETIL] | Compound NOT metabolized | Compound metabolized | Compound metabolized | Compound metabolized | Compound metabolized | Compound metabolized | Compound metabolized | Compound metabolized | Compound metabolized | Compound metabolized | Compound metabolized | Compound metabolized | Compound metabolized | Compound metabolized | Compound metabolized | Compound metabolized | Compound NOT metabolized | Compound metabolized | Compound metabolized | Compound metabolized
CC(C)c1nc(CN(C)C(=O)N[C@H](C(=O)N[C@@H](Cc2ccccc2)C[C@H](O)[C@H](Cc2ccccc2)NC(=O)OCc2cncs2)C(C)C)cs1 [RITONAVIR] | Compound NOT metabolized | Compound metabolized | Compound metabolized | Compound metabolized | Compound metabolized | Compound metabolized | Compound metabolized | Compound NOT metabolized | Compound NOT metabolized | Compound NOT metabolized | Compound metabolized | Compound NOT metabolized | Compound metabolized | Compound metabolized | Compound metabolized | Compound metabolized | Compound NOT metabolized | Compound metabolized | Compound metabolized | Compound metabolized
CCc1nn(CCCN2CCN(c3cccc(Cl)c3)CC2)c(=O)n1CCOc1ccccc1 [NEFAZODONE] | Compound NOT metabolized | Compound NOT metabolized | Compound NOT metabolized | Compound NOT metabolized | Compound NOT metabolized | Compound metabolized | Compound metabolized | Compound NOT metabolized | Compound NOT metabolized | Compound NOT metabolized | Compound NOT metabolized | Compound metabolized | Compound NOT metabolized | Compound metabolized | Compound metabolized | Compound metabolized | Compound metabolized | Compound metabolized | Compound metabolized | Compound metabolized
CC(C)NCC(O)COc1ccc(CCOCC2CC2)cc1 (stereo not given) [BETAXOLOL] | Compound NOT metabolized | Compound NOT metabolized | Compound NOT metabolized | Compound NOT metabolized | Compound metabolized | Compound metabolized | Compound NOT metabolized | Compound NOT metabolized | Compound NOT metabolized | Compound NOT metabolized | Compound NOT metabolized | Compound NOT metabolized | Compound NOT metabolized | Compound NOT metabolized | Compound metabolized | Compound NOT metabolized | Compound NOT metabolized | Compound metabolized | Compound metabolized | Compound metabolized
N#Cc1ccc(C(c2ccc(C#N)cc2)n2cncn2)cc1 [LETROZOLE] | Compound NOT metabolized | Compound NOT metabolized | Compound NOT metabolized | Compound NOT metabolized | Compound metabolized | Compound NOT metabolized | Compound NOT metabolized | Compound NOT metabolized | Compound NOT metabolized | Compound NOT metabolized | Compound NOT metabolized | Compound NOT metabolized | Compound NOT metabolized | Compound NOT metabolized | Compound NOT metabolized | Compound NOT metabolized | Compound NOT metabolized | Compound NOT metabolized | Compound NOT metabolized | Compound NOT metabolized
